# Columns and labels:
# Format in all cases: organism-based
# Conditions in all cases: in vivo
# Rattus norvegicus [1] = experiment: The hypotensive activity expressed as rating of therapeutic index (MED/LD50 <1/200).
# Rattus norvegicus [2] = experiment: The hypotensive activity expressed as rating of therapeutic index (1/30> MED/LD50 >=1/200).
# Rattus norvegicus [3] = experiment: The hypotensive activity expressed as rating of therapeutic index (MED/LD50 >=1/30).
smiles,measurement,setting,value
CCC(C)(C)NC(=NC#N)Nc1cccnc1,TI rating,Rattus norvegicus [1],3
CC(C)CC(C)(C)/N=C(\NC#N)Nc1cccnc1,TI rating,Rattus norvegicus [1],3
CC(C)(C)C(C)(C)/N=C(\NC#N)Nc1ccncc1,TI rating,Rattus norvegicus [2],2
CCC(CC)/N=C(\NC#N)Nc1ccncc1,TI rating,Rattus norvegicus [2],2
CC(C)C(/N=C(\NC#N)Nc1cccnc1)C(C)C,TI rating,Rattus norvegicus [1],3
CC(C)(C)/N=C(\NC#N)Nc1ccc(Cl)nc1Cl,TI rating,Rattus norvegicus [3],1
CC(C)CCC(C)/N=C(\NC#N)Nc1ccncc1 (stereo not given),TI rating,Rattus norvegicus [3],1
CCC(/N=C(\NC#N)Nc1ccncc1)C(C)C (stereo not given),TI rating,Rattus norvegicus [2],2
CC(C)CC(C)(C)/N=C(\NC#N)Nc1ccncc1,TI rating,Rattus norvegicus [2],2
CC1(/N=C(\NC#N)Nc2cccnc2)CCC1,TI rating,Rattus norvegicus [3],1
CC(/N=C(\NC#N)Nc1ccncc1)c1ccccc1 (stereo not given),TI rating,Rattus norvegicus [2],2
CC(C)C/N=C(\NC#N)Nc1cccnc1,TI rating,Rattus norvegicus [2],2
N#CN/C(=N\C12C[C@H]3C[C@@H](C1)C[C@@H](C2)C3)Nc1ccncc1,TI rating,Rattus norvegicus [1],3
CCC(C)(C)/N=C(\NC#N)Nc1ccncc1,TI rating,Rattus norvegicus [1],3
CCOCC/N=C(\NC#N)Nc1cccnc1,TI rating,Rattus norvegicus [3],1
N#CN/C(=N\C1CCCC1)Nc1cccnc1,TI rating,Rattus norvegicus [2],2
CC(C)(C)/N=C(\NC#N)Nc1cncc(Br)c1,TI rating,Rattus norvegicus [1],3
Cc1cc(C)nc(N/C(=N/C(C)(C)C)NC#N)c1,TI rating,Rattus norvegicus [3],1
N#CN/C(=N\Cc1ccco1)Nc1cccnc1,TI rating,Rattus norvegicus [2],2
CC(C)CC(C)/N=C(\NC#N)Nc1ccncc1 (stereo not given),TI rating,Rattus norvegicus [3],1
N#CN/C(=N\Cc1ccccc1)Nc1cccnc1,TI rating,Rattus norvegicus [2],2
N#CNC(=N)Nc1cccnc1,TI rating,Rattus norvegicus [3],1
COc1ccc(/N=C(\NC#N)NC(C)(C)C)c(OC)n1,TI rating,Rattus norvegicus [3],1
CCC(C)(C)/N=C(\NC#N)Nc1c(C)cc(C)nc1C,TI rating,Rattus norvegicus [3],1
CC(C)(C)/N=C(/NC#N)Nc1cccnc1,TI rating,Rattus norvegicus [1],3
CC(/N=C(/NC#N)Nc1cccnc1)C(C)(C)C (stereo not given),TI rating,Rattus norvegicus [1],3
CC(C)(C)C/N=C(/NC#N)Nc1cccnc1,TI rating,Rattus norvegicus [1],3
N#CN/C(=N\C1CCCCC1)Nc1cccnc1,TI rating,Rattus norvegicus [2],2
CCN(CC)CC/N=C(\NC#N)Nc1cccnc1,TI rating,Rattus norvegicus [3],1
N#CN/C(=N\CCc1ccccc1)Nc1cccnc1,TI rating,Rattus norvegicus [3],1
CCCC/N=C(\NC#N)Nc1cccnc1,TI rating,Rattus norvegicus [2],2
N#CN/C(=N\CC1CCCO1)Nc1cccnc1 (stereo not given),TI rating,Rattus norvegicus [3],1
N#CN/C(=N\C1CCCCC1)Nc1ccccn1,TI rating,Rattus norvegicus [3],1
N#CN/C(=N\c1ccccc1)Nc1ccncc1,TI rating,Rattus norvegicus [3],1
CC(C)C(C)(C)/N=C(\NC#N)Nc1ccncc1,TI rating,Rattus norvegicus [2],2
CCCCC/N=C(\NC#N)Nc1cccnc1,TI rating,Rattus norvegicus [2],2
CC(C)(C)C/N=C(\NC#N)Nc1ccncc1,TI rating,Rattus norvegicus [2],2
CC(C)(C)CC(C)(C)/N=C(\NC#N)Nc1cccnc1,TI rating,Rattus norvegicus [3],1
CCCCC(CC)C/N=C(\NC#N)Nc1cccnc1 (stereo not given),TI rating,Rattus norvegicus [3],1
N#CN/C(=N\C1CCCCC1)Nc1ccncc1,TI rating,Rattus norvegicus [3],1
N#CN/C(=N\C(C1CC1)C1CC1)Nc1ccncc1,TI rating,Rattus norvegicus [2],2
CC(/N=C(\NC#N)Nc1ccncc1)C1CC1 (stereo not given),TI rating,Rattus norvegicus [2],2
CC(C)C(/N=C(\NC#N)Nc1ccncc1)C(C)C,TI rating,Rattus norvegicus [3],1
CC(C)C(C)(C)/N=C(\NC#N)Nc1cccnc1,TI rating,Rattus norvegicus [1],3
CC(C)(NC(=NC#N)Nc1cccnc1)c1ccccc1,TI rating,Rattus norvegicus [3],1
CC(C)(C)/N=C(\NC#N)Nc1ccc(Cl)cn1,TI rating,Rattus norvegicus [3],1
CC(C)(C)/N=C(\NC#N)Nc1ccccn1,TI rating,Rattus norvegicus [3],1
CCC(C)/N=C(\NC#N)Nc1cccnc1 (stereo not given),TI rating,Rattus norvegicus [2],2
N#CN/C(=N\C12C[C@H]3C[C@@H](C1)C[C@@H](C2)C3)Nc1cccnc1,TI rating,Rattus norvegicus [3],1
N#CN/C(=N\c1ccccc1)Nc1cccnc1,TI rating,Rattus norvegicus [2],2
N#CN/C(=N\c1cccnc1)N1CCCCC1,TI rating,Rattus norvegicus [2],2
CCC(CC)(CC)/N=C(\NC#N)Nc1cccnc1,TI rating,Rattus norvegicus [1],3
N#CN/C(=N\Cc1ccccc1)Nc1ccncc1,TI rating,Rattus norvegicus [2],2
CC(C)(C)CC(C)(C)/N=C(\NC#N)Nc1ccncc1,TI rating,Rattus norvegicus [3],1
CCC(C)(CC)/N=C(\NC#N)Nc1cccnc1,TI rating,Rattus norvegicus [1],3
CCCCCCC/N=C(\NC#N)Nc1cccnc1,TI rating,Rattus norvegicus [3],1
CC(C)/N=C(\NC#N)Nc1cccnc1,TI rating,Rattus norvegicus [1],3
C=C(C)C/N=C(\NC#N)Nc1cccnc1,TI rating,Rattus norvegicus [2],2
CC(C)(C)/N=C(\NC#N)Nc1ccncc1,TI rating,Rattus norvegicus [1],3
N#CN/C(=N\C1CCCCCCC1)Nc1ccncc1,TI rating,Rattus norvegicus [3],1
CCCC(C)(C)/N=C(\NC#N)Nc1cccnc1,TI rating,Rattus norvegicus [1],3
CCC(CC)/N=C(\NC#N)Nc1cccnc1,TI rating,Rattus norvegicus [3],1
CCC(C)C(C)/N=C(\NC#N)Nc1ccncc1 (stereo not given),TI rating,Rattus norvegicus [3],1
N#CN/C(=N\C1CC1)Nc1cccnc1,TI rating,Rattus norvegicus [2],2
N#CN/C(=N\CCc1ccccc1)Nc1ccncc1,TI rating,Rattus norvegicus [2],2
CC(C)CC/N=C(\NC#N)Nc1cccnc1,TI rating,Rattus norvegicus [2],2
CC(C)(C)C(C)(C)/N=C(\NC#N)Nc1cccnc1,TI rating,Rattus norvegicus [3],1
CCC/N=C(\NC#N)Nc1cccnc1,TI rating,Rattus norvegicus [2],2
C/N=C(\NC#N)Nc1cccnc1,TI rating,Rattus norvegicus [3],1
CCC(C)(CC)/N=C(\NC#N)Nc1ccncc1,TI rating,Rattus norvegicus [1],3
Cc1cccc(C)c1/N=C(\NC#N)Nc1cccnc1,TI rating,Rattus norvegicus [3],1
CCC(CC)(CC)/N=C(\NC#N)Nc1ccncc1,TI rating,Rattus norvegicus [1],3
CC(C)(C)/N=C(\NC#N)Nc1cccnc1Cl,TI rating,Rattus norvegicus [1],3
COc1ccc(N/C(=N/C(C)(C)C)NC#N)cn1,TI rating,Rattus norvegicus [3],1
Cc1cc(C)c(/N=C(\NC#N)NC(C)(C)C)c(C)n1,TI rating,Rattus norvegicus [3],1

# From ChEMBL document CHEMBL1121594, “Adaptive least-squares method applied to structure--activity correlation of hypotensive N-alkyl-N''-cyano-N'-pyridylguanidines” (J Med Chem, 1980)
